The subject of one assay is β-adrenergic receptors. The assay can be described thus: isoproterenol-induced intracellular cAMP synthesis in rat C6 glioma. The assay is classed as cell-based. Particulars: cAMP induced by 5 μM (−) isoproterenol, 30 min; for Effect: rat C6 glioma. On the procedure:
Rat C6 glioma (ATCC N° CCL107) was cultivated in monolayer in serum-free chemically defined medium containing Ham's F10/minimal essential medium (1:1 vol/vol), 2 mM L-glutamine, 1% (vol/vol) minimal essential medium vitamins (100×), 1% (vol/vol) minimal essential medium nonessential amino acids (100×), 100 U/ml penicillin, 100 μg/ml streptomycin and 30 nM sodium selenite. Incubation was at 37° C. in a humidified atmosphere. Assays were performed in the logaritmic growth phase at a density of 2.5×10^5 cells/cm^2. Intracellular cAMP synthesis was induced by addition of 5 μM (−) isoproterenol. After 30 min incubation at 37° C. the medium was removed and the cellular amount of cAMP determined using the cAMP-enzyme immunoassay kit of Amersham. The IC50 is determined from a dose-response curve in duplicate. The effect of seven purine-analogs was measured after simultaneous addition with isoproterenol.
As P2Y1-like and A2 purinergic receptors, negatively and positively coupled to adenylate cyclase respectively, are present on rat C6 glioma the modulation of the synthesis of cAMP may be due to inhibition of the activation of β-adrenergic receptors by isoproterenol or to activation of purinergic receptors.

The next assay deals with T1, CDC2 (Homo sapiens, UniProt P06493).
T1 construct: made in house; host or cells: Sf9 insect cells, baculovirus co-infection
Briefly: p34cdc2 (CDC2) kinase inhibition assay, histone H1 substrate. It counts as biochemical.

The next assay has as its target IκB-α. Briefly: IκB-α kinase-inhibitory activity. It counts as biochemical. From the text: Modification of 2,6,9-trisubstituted purines by a catechol-like substituent at R6 leads to an increase in cdk inhibitory activity of the tested compounds.
The subject of assay [1] is T-lymphoblastic leukemia cell line CEM. The assay can be described thus: MTT cytotoxicity assay, CEM. It counts as cell-based, human. Particulars: 72 hours (TCS50 in the method). From the text:
(§1) One of the parameters used as the basis for colorimetric assays is the metabolic activity of viable cells. For example, a microtiter assay, which uses the tetrazolium salt MTT, is now widely used to quantitate cell proliferation and cytotoxicity. For instance, this assay is used in drug screening programs and in chemosensitivity testing. Because only metabolically active cells cleave tetrazolium salts, these assays detect viable cells exclusively. In the case of MTT assay, yellow soluble tetrazolium salt is reduced to coloured water-insoluble formazan salt. After it is solubilized, the formazan formed can easily and rapidly be quantified in a conventional ELISA plate reader at 570 nm (maximum absorbance). The quantity of reduced formazan corresponds to number of vital cells in the culture. Human T-lymphoblastic leukemia cell line CEM; promyelocytic HL-60 and monocytic U937 leukemias; breast carcinoma cell lines MCF-7, BT549, MDA-MB-231; glioblastoma U87MG cells; cervical carcinoma cells HELA; sarcoma cells U20S and Saos2; hepatocellular carcinoma HepG2; mouse immortalized bone marrow macrophages B2.4 and B10A.4; P388D1 and L1210 leukemia; B16 and B16F10 melanomas were used for routine screening of the compounds according to the invention. The cells were maintained in Nunc/Corning 80 cm^2 plastic tissue culture flasks and cultured in cell culture medium (DMEM with 5 g/l glucose, 2 mM glutamine, 100 U/ml penicillin, 100 μg/ml streptomycin, 10% fetal calf serum and sodium bicarbonate).
(§2) The cell suspensions that were prepared and diluted according to the particular cell type and the, expected target cell density (2500-30000 cells per well based on cell growth characteristics) were added by pipette (80 μl) into 96-well microtiter plates. Inoculates were allowed a pre-incubation period of 24 hours at 37° C. and 5% CO2 for stabilisation. Four-fold dilutions of the intended test concentration were added at time zero in 20 μl aliquots to the microtiter plate wells. Usually, test compound was evaluated at six 4-fold dilutions. In routine testing, the highest well concentration was 266.7 μM, but it can be the matter of change dependent on the agent. All drug concentrations were examined in duplicates. Incubations of cells with the test compounds lasted for 72 hours at 37° C., in 5% CO2 atmosphere and 100% humidity. At the end of incubation period, the cells were assayed by using the MTT. Ten microliters of the MTT stock solution were pipetted into each well and incubated further for 1-4 hours. After this incubation period, formazan was solubilized by addition of 100 μl/well of 10% SDS in water (pH=5.5) followed by further incubation at 37° C. overnight. The optical density (OD) was measured at 540 nm with the Labsystem iEMS Reader MF (UK). The tumour cell survival (TCS) was calculated using the following equation: TCS=(ODdrug exposed well/mean ODcontrol wells)×100%. The TCS50 value, the drug concentration lethal to 50% of the tumour cells, was calculated from the obtained dose response curves.
(§3) The cytoxicity of novel compounds was tested on panel of cell lines of different histogenetic and species origin (Table 7). Equal activities were found in all tumour cell lines tested. […] Importantly, this observation distinguishes the purine derivatives of the invention from flavopiridol and related compounds, as their biological activity is dependent on p53 status.
A general note: Formazan colour is commonly taken as a measure of viable cells.

For a further assay, the system named is normal human lymphocytes. Briefly: concanavalin A induced lymphocyte proliferation, [3H]-TdR incorporation. Particulars: 72 hours, read-out: ED50 (the source's name). The assay is classed as cell-based. On the procedure: Human heparinized peripheral blood was obtained from healthy volunteers by cubital vein punction. The blood was diluted in PBS (1:3) and mononuclear cells were separated by centrifugation in Ficoll-Hypaque density gradient (Pharmacia, 1.077 g/ml) at 2200 rpm for 30 minutes. Following centrifugation, lymphocytes were washed in PBS and resuspended in cell culture medium (RMPI 1640, 2 mM glutamine, 100 U/ml penicillin, 100 μg/ml streptomycin, 10% fetal calf serum and sodium bicarbonate).
The cells were diluted at target density of 1100000 cells/ml and were added by pipette (180 μl) into 96/well microtiter plates. Four-fold dilutions of the intended test concentration were added at time zero in 20 μl aliquots to the microtiter plate wells. Usually, test compound was evaluated at six 4-fold dilutions. In routine testing, the highest well concentration was 266.7 μM. All drug concentrations were examined in duplicates. All wells with exception of unstimulated controls were activated with 50 μl of concanavalin A (25 μg/ml). Incubations of cells with test compounds lasted for 72 hours at 37° C., in 5% CO2 atmosphere and 100% humidity. At the end of incubation period, the cells were assayed by using the [^3H]-TdR:
Cell cultures were incubated with […] (20 μl of stock solution 500 μCi/ml) per well for 6 hours at 37° C. and 5% CO2. The automated cell harvester was used to lyse cells in water and adsorb the DNA onto glass-fiber filters in the format of microtiter plate. The DNA incorporated [^3H]-TdR was retained on the filter while unincorporated material passes through. The filters were dried at room temperature overnight, sealed into a sample bag with 10-12 ml of scintillant. The amount of [^3H]-TdR present in each filter (in cpm) was determined by scintillation counting in a Betaplate liquid scintillation counter. The effective dose of immunosuppressant (ED) was calculated using the following equation: ED=(cpmdrug exposed well/mean cpmcontrol wells)×100%. The EDs50 value, the drug concentration inhibiting proliferation of 50% of lymphocytes, was calculated from the obtained dose response curves.
To evaluate immunosuppressive activity of substituted adenines, their ability to inhibit polyclonal mitogen induced proliferation of normal human lymphocytes was analyzed (Table 8). […] Effective immunosuppressive dose of new derivatives under in vitro conditions was close to 1-20 μM.

The next assay concerns B16 melanoma. Briefly: MTT cytotoxicity assay, B16. The assay is classed as cell-based, mouse. To be noted: 72 hours (TCS50 in the method).
Description: as §1, §2, §3

T1 sequence (P06493 whole entry, species assumed): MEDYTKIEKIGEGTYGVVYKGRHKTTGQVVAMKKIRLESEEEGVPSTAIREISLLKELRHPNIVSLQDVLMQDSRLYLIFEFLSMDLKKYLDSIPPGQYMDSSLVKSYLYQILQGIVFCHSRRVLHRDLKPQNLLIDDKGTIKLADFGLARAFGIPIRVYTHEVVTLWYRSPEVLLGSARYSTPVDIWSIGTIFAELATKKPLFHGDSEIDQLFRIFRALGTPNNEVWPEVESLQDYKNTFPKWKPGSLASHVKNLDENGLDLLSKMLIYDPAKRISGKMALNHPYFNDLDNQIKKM
T1 sequence (P14635 whole entry partner, species assumed): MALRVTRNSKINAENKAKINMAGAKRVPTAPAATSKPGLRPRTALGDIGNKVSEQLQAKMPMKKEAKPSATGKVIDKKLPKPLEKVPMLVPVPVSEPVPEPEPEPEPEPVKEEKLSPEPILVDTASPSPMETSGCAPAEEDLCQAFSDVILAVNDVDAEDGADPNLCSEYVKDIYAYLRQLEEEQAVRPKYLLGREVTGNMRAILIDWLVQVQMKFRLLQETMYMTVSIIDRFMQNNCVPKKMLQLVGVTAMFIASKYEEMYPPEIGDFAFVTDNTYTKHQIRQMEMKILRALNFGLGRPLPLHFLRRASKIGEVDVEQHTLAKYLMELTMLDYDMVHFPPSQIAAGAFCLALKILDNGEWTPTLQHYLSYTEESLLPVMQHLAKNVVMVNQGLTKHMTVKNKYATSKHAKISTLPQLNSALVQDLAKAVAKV

Turning to `CC(C)C(CO)Nc1nc(NCc2ccccc2)c2ncn(C(C)C)c2n1` (stereo not shown) [P30], in the assay on β-adrenergic receptors, the Effect result is listed as “inhibition”. Further, at β-adrenergic receptors (read-out: I50), the IC50 came out at 45 ± 5 µM.
For `Cn1cnc2c(NC(CO)c3ccccc3)nc(NCCO)nc21` (racemic), the figures for the IC50 at CDC2 (Table 3) and against IκB-α (Table 3) were 5600 nM and 13700 nM, respectively.
In the case of `CC[C@H](CO)Nc1nc(NC(CO)c2ccccc2)c2ncn(C(C)C)c2n1` (stereo partly shown), the IC50 in assay [1] stood at 15 µM; on IκB-α (Table 3), 2150 nM; in the assay on B16 melanoma it was 13.5 µM. Also, in the assay on normal human lymphocytes, the EC50 came to 12 µM.
For `CC(C)[C@H](CO)Nc1nc(NCc2ccc(O)c(O)c2)c2ncn(C(C)C)c2n1`, the IC50 against CDC2 (Table 3, unit nM) was 250 nM; against IκB-α (Table 3, unit nM), 320 nM.
Regarding `CN(CCc1ccc(O)c(O)c1)c1nc(NCCO)nc2c1ncn2C`, the figures for the IC50 at CDC2 (Table 3) and against IκB-α (Table 3) were 10200 nM and 25400 nM, respectively.
As to `CC(O)CNc1nc(NC(CO)c2ccccc2)c2ncn(C(C)C)c2n1` (stereo not shown) [P39], in the assay with β-adrenergic receptors, the Effect result was “inactive”.
In the case of `CCCCCCNc1nc(N(C)CCc2ccc(O)c(O)c2)c2ncn(C(C)C)c2n1`, the IC50 amounted to 33 µM in assay [1], 2600 nM at CDC2 (Table 3) and 32 µM in the assay on B16 melanoma. Besides, in the assay with normal human lymphocytes, the EC50 came out at 15 µM.
For `CC(C)n1cnc2c(N(C)CCc3ccc(O)c(O)c3)nc(NC[C@@H](C)O)nc21`, the IC50 in assay [1] worked out at 13 µM; in the assay on B16 melanoma, 14 µM. Also, the EC50 in the assay on normal human lymphocytes stood at 7 µM.
Regarding `CC(C)[C@H](CO)Nc1nc(N(C)CCc2ccc(O)c(O)c2)c2ncn(C(C)C)c2n1`, the IC50 came to 8 µM in assay [1]; 390 nM on CDC2 (Table 3, unit nM); 460 nM against IκB-α (Table 3, unit nM); 9 µM with B16 melanoma. In addition, the EC50 in the assay on normal human lymphocytes was determined as 0.54 µM.
Take `CC[C@H](CO)Nc1nc(NCc2ccc(O)c(O)c2)c2ncn(C(C)C)c2n1`: the results for the IC50 (in assay [1]; against IκB-α (Table 3); with B16 melanoma) were 8 µM, 1250 nM and 9 µM, respectively.
Turning to `CC(C)[C@H](CO)Nc1nc(NC(CO)c2ccccc2)c2ncn(C(C)C)c2n1` (stereo partly shown), the IC50 on CDC2 (Table 3, unit nM) amounted to 540 nM; on IκB-α (Table 3, unit nM) it was 670 nM.
In the case of `Cn1cnc2c(NCc3ccc(O)c(O)c3)nc(NCCO)nc21`, the IC50 is 4200 nM on CDC2 (Table 3) and 10800 nM at IκB-α (Table 3).
With `CC(C)n1cnc2c(NC(CO)c3ccccc3)nc(NCCO)nc21` (racemic), the results for the IC50 (in assay [1]; on CDC2 (Table 3); in the assay on B16 melanoma) were 18 µM, 1400 nM and 19 µM, respectively. Further, the EC50 in the assay on normal human lymphocytes was determined as 38 µM.
Consider `CC[C@@H](CO)Nc1nc(N[C@@H](CO)c2ccccc2)c2ncn(C(C)C)c2n1` [P38], for which the Effect entry in the assay on β-adrenergic receptors is “inactive”.
